Data as given in article PMC11947619, “Molecular mechanism of Mad2 conformational conversion promoted by the Mad2‐interaction motif of Cdc20” (Protein Science : A Publication of the Protein Society, 2025).
Residues, ends and D or L forms follow the SMILES beside them.

How the values were obtained:
Mad2^∆β7/β8 = molecular target: T1, Mad2^∆β7/β8 (Homo sapiens, UniProt Q13257); assay: NMR titration (CSP) of Cdc20^MIM-123-152 into Mad2^∆β7/β8; assay type: binding; conditions: 25°C
T1 construct: a Mad2 variant with a deleted β7/β8 hairpin (Mad2^∆β7/β8: residues 1–165); His6-DoubleStrep-TEV (N); made in house
Description: (§1) FIGURE 3 Mad2 conversion rates with different Cdc20^MIM peptides. (a) Schematic of human Cdc20. Box1: Box1 motif; C1: C‐box motif; K1: KEN box motif; MIM: Mad2‐interacting motif, residues 123–137; WD40: WD40 domain, residues 182–480; IR: IR tail. (b) Mad2 conversion in the presence of different Cdc20^MIM peptides. Mad2 conversion was traced at 25°C and the changes in the first 30 min are shown. A black tick indicates where conversion is considered complete. NMR data for O‐Mad2^R133A with Cdc20^MIM‐111‐138 shown for comparison are from Fischer et al. ([2022]). (c) The Cdc20^MIM‐138‐152‐binding site was identified by comparing the spectra of C‐Mad2:Cdc20^MIM‐123‐137 with C‐Mad2:Cdc20^MIM‐123‐152 (boxed in b) and analyzing their CSPs (Figure S8e,f). The Cdc20^MIM‐138‐152‐binding site (blue) is mapped onto the structure of C‐Mad2:Cdc20 from the cryo‐EM structure of the APC/C:MCC complex (PDB 6TLJ) (Alfieri et al., [2016], Alfieri et al., [2020]). The O‐Mad2 structural model is superimposed onto the C‐Mad2 structure for comparison. Cdc20 residues 138–152 are in yellow and residues 126–138 are in green. The β7/β8 hairpin in O‐Mad2 (red) blocks both the binding sites for Cdc20 residues 126–138 and residues 138–152. (d) As in c except the β7/β8 hairpin in O‐Mad2 is removed to expose the Cdc20 binding sites. […] (f) Cdc20^MIM‐123‐152 was titrated into Mad2^∆β7/β8 and its binding was analyzed by NMR. […]

C‐Mad2 = assay: NMR chemical shift perturbations of C-Mad2 by Cdc20 residues 138–152; assay type: binding, human; conditions: inferred from small CSPs, spectra of C-Mad2:Cdc20^MIM-123-152 vs C-Mad2:Cdc20^MIM-123-137, and lack of cryo-EM structural information
Description: as §1

Row | interaction with Mad2^∆β7/β8, in words (Mad2^∆β7/β8; NMR CSPs on addition of peptide) | Kd (Mad2^∆β7/β8; NMR titration, fit of resonance with largest CSP vs ligand concentration, 20 mM HEPES pH 7.0, 100 mM NaCl, 1 mM TCEP, 5% D2O, read-out: KD (estimated)) | Molecule | association with C-Mad2, in words (C‐Mad2)
1 | weak interaction | > 700 µM | CC[C@H](C)[C@H](NC(=O)[C@H](CCCCN)NC(=O)[C@H](C)NC(=O)[C@H](CCC(=O)O)NC(=O)[C@H](CCC(=O)O)NC(=O)[C@@H](NC(=O)[C@H](CC(=O)O)NC(=O)[C@@H](N)Cc1ccccc1)C(C)C)C(=O)N[C@@H](CC(C)C)C(=O)N[C@@H](CCCNC(=N)N)C(=O)N[C@@H](CC(C)C)C(=O)N[C@@H](CO)C(=O)NCC(=O)N[C@@H](CCCCN)C(=O)N1CCC[C@H]1C(=O)N[C@@H](CCC(N)=O)C(=O)N[C@@H](CC(N)=O)C(=O)N[C@@H](C)C(=O)N1CCC[C@H]1C(=O)N[C@@H](CCC(=O)O)C(=O)NCC(=O)N[C@@H](Cc1ccc(O)cc1)C(=O)N[C@@H](CCC(N)=O)C(=O)N[C@@H](CC(N)=O)C(=O)N[C@@H](CCCNC(=N)N)C(=O)N[C@@H](CC(C)C)C(=O)N[C@@H](CCCCN)C(=O)N[C@H](C(=O)N[C@@H](CC(C)C)C(=O)N[C@@H](Cc1ccc(O)cc1)C(=O)O)C(C)C [Cdc20^MIM‐123‐152] (H-FDVEEAKILRLSGKPQNAPEGYQNRLKVLY-OH; N-terminus and C-terminus assumed) | 
2 |  |  | QNAPEGYQNRLKVLY [Cdc20^MIM‐138‐152, peptide of Cdc20 residues 138–152] | only weakly associated with C‐Mad2
